Measurements from US4526989A, “1,4-Bis (substituted-amino)-5,8-dihydroxy-anthraquinones and leuco bases thereof” (priority 1979, dated 1985).
Read-outs that look alike come from different tables or passages of the source.

Tests used:
[1] = test system: lymphocytic leukemia P388; assay: Lymphocytic leukemia P388 test (intraperitoneal administration); assay type: in vivo, DBA/2 mice
Outline: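 DBA/2 mice, single sex, 5-6 per group, inoculated i.p. with 10^6 P388 leukemia cells. Compounds given i.p. at various doses on days 1, 5 and 9; survival followed 30 days, reporting median survival time and treated/control (T/C) survival ratio.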

melanotic melanoma B16 = assay: Melanotic Melanoma B16 test; assay type: in vivo, C57BC/6 mice
Method: The animals used are C57BC/6 mice, all of the same sex, weighing a minimum of 17 g. and all within a 3-g. weight range. There are normally 10 animals per test group. A one-gram portion of melanotic melanoma B16 tumor is homogenized in 10 ml. of cold balanced salt solution and a 0.5-ml. aliquot of the homogenate is implanted intraperitoneally into each of the test mice. The test compounds are administered intraperitoneally on days one through 9 (relative to tumor inoculation) at various doses. The animals are weighed and survivors are recorded on a regular basis for 60 days. The median survival time and the ratio of survival time for treated (T)/control (C) animals are calculated. […] The criterion for efficacy is T/C×100≥125%.

[2] = 12 mg./kg. i.p., days 1, 5 and 9
[3] = 25 mg./kg. i.p., days 1, 5 and 9
[4] = 50 mg./kg. i.p., days 1, 5 and 9
[5] = Mus musculus, P388, ip, 12 mg./kg. i.p., days 1, 5 and 9, efficacy ≥125%, read-out: T/C × 100
[6] = Mus musculus, P388, ip, 25 mg./kg. i.p., days 1, 5 and 9, efficacy ≥125%, read-out: T/C × 100
[7] = Mus musculus, P388, ip, 50 mg./kg. i.p., days 1, 5 and 9, efficacy ≥125%, read-out: T/C × 100
[8] = 25 mg./kg. i.p., days 1 through 9
[9] = Mus musculus, ip, 25 mg./kg. i.p., days 1 through 9, efficacy ≥125%, read-out: T/C × 100
[10] = 100 mg./kg. i.p., days 1, 5 and 9
[11] = 200 mg./kg. i.p., days 1, 5 and 9
[12] = Mus musculus, P388, ip, 100 mg./kg. i.p., days 1, 5 and 9, efficacy ≥125%, read-out: T/C × 100
[13] = Mus musculus, P388, ip, 200 mg./kg. i.p., days 1, 5 and 9, efficacy ≥125%, read-out: T/C × 100
[14] = 50 mg./kg. i.p., days 1 through 9
[15] = Mus musculus, ip, 50 mg./kg. i.p., days 1 through 9, efficacy ≥125%, read-out: T/C × 100
[16] = 6 mg./kg. i.p., days 1 through 9
[17] = 12 mg./kg. i.p., days 1 through 9
[18] = Mus musculus, ip, 6 mg./kg. i.p., days 1 through 9, efficacy ≥125%, read-out: T/C × 100
[19] = Mus musculus, ip, 12 mg./kg. i.p., days 1 through 9, efficacy ≥125%, read-out: T/C × 100
[20] = Mus musculus, P388, ip, read-out: T/C × 100

Row | Compound | Median Survival Time [1, 2] | Median Survival Time [1, 3] | Median Survival Time [1, 4] | response vs control in vivo at 12 mg/kg [1, 5] | response vs control in vivo at 25 mg/kg [1, 6] | response vs control in vivo at 50 mg/kg [1, 7] | Median Survival Time (melanotic melanoma B16; [8]) | response vs control in vivo at 25 mg/kg (melanotic melanoma B16; [9]) | Median Survival Time [1, 10] | Median Survival Time [1, 11] | response vs control in vivo at 100 mg/kg [1, 12] | response vs control in vivo at 200 mg/kg [1, 13] | Median Survival Time (melanotic melanoma B16; [14]) | response vs control in vivo at 50 mg/kg (melanotic melanoma B16; [15]) | Median Survival Time (melanotic melanoma B16; [17]) | response vs control in vivo at 12 mg/kg (melanotic melanoma B16; [19]) | further results
1 | CN(C)CCCNc1ccc(NCCCN(C)C)c2c1C(=O)c1c(O)ccc(O)c1C2=O [1,4-Bis[(3-dimethylaminopropyl)amino]-5,8-dihydroxyanthraquinone] | 15.0 days | 15.5 days | 15.5 days | 125% | 129% | 129% | 20.0 days | 125% |  |  |  |  |  |  |  |  | 
2 | CNCCNCCNC1=C2C(=O)c3c(O)ccc(O)c3C(=O)C2=C(NCCNCCNC)CC1 [Leuco-1,4-bis[2-(2-methylaminoethylamino)ethylamino]-5,8-dihydroxyanthraquinone] |  | 21.0 days | 28.0 days |  | 191% | 255% | 35.0 days | 206% | 26.0 days | 2.0 days | 236% | 18% | 12.5 days | 73% |  |  | Median Survival Time ([1]; 6.2 mg./kg. i.p., days 1, 5 and 9): 15.0 days; Median Survival Time ([1]; 12.5 mg./kg. i.p., days 1, 5 and 9): 16.0 days; response vs control in vivo at 6.2 mg/kg ([1]; Mus musculus, P388, ip, 6.2 mg./kg. i.p., days 1, 5 and 9, efficacy ≥125%, read-out: T/C × 100): 136%; response vs control in vivo at 12.5 mg/kg ([1]; Mus musculus, P388, ip, 12.5 mg./kg. i.p., days 1, 5 and 9, efficacy ≥125%, read-out: T/C × 100): 145%; Median Survival Time (melanotic melanoma B16; 6.2 mg./kg. i.p., days 1 through 9): 28.5 days; Median Survival Time (melanotic melanoma B16; 12.5 mg./kg. i.p., days 1 through 9): 39.5 days; response vs control in vivo at 6.2 mg/kg (melanotic melanoma B16; Mus musculus, ip, 6.2 mg./kg. i.p., days 1 through 9, efficacy ≥125%, read-out: T/C × 100): 168%; response vs control in vivo at 12.5 mg/kg (melanotic melanoma B16; Mus musculus, ip, 12.5 mg./kg. i.p., days 1 through 9, efficacy ≥125%, read-out: T/C × 100): 232%
3 | NCCNCCNc1ccc(NCCNCCN)c2c1C(=O)c1c(O)ccc(O)c1C2=O [1,4-Bis[2-(2-aminoethylamino)ethylamino]-5,8-dihydroxyanthraquinone] |  | 13.0 days | 14.0 days |  | 124% | 133% | 22.5 days | 141% | 16.0 days | 17.0 days | 152% | 162% | 24.0 days | 150% | 22.0 days | 138% | Median Survival Time (melanotic melanoma B16; [16]): 20.0 days; response vs control in vivo at 6 mg/kg (melanotic melanoma B16; [18]): 125%
4 | NCCNC1=C2C(=O)c3c(O)ccc(O)c3C(=O)C2=C(NCCN)CC1 [Leuco-1,4-bis(2-aminoethylamino)-5,8-dihydroxyanthraquinone] | 18.0 days | 19.0 days | 23.0 days |  | 158% | 192% |  |  | 19.0 days |  |  |  |  |  | 32.0 days |  | response vs control in vivo at 12 mg/kg [1, 20]: 150%; response vs control in vivo at 100 mg/kg [1, 20]: 158%; response vs control in vivo at 12 mg/kg (melanotic melanoma B16; Mus musculus, ip, read-out: T/C × 100): 200%
5 | CCN(CC)CCNC1=C2C(=O)c3c(O)ccc(O)c3C(=O)C2=C(NCCN(CC)CC)CC1 [Leuco-1,4-bis[(2-diethylaminoethyl)amino]-5,8-dihydroxyanthraquinone] | 12.0 days | 13.0 days | 15.0 days | 126% | 137% | 158% |  |  | 17.0 days | 17.0 days | 179% | 179% | 23.0 days | 139% |  |  | 
6 | O=C1C2=C(NCCN3CCCC3)CCC(NCCN3CCCC3)=C2C(=O)c2c(O)ccc(O)c21 [Leuco-1,4-bis[2-(1-pyrrolidinyl)ethylamino]-5,8-dihydroxyanthraquinone] |  | 15.0 days | 16.0 days |  | 136% | 145% | 22.0 days | 137% | 19.0 days | 23.0 days | 173% | 209% | 23.0 days | 144% | 21.0 days | 131% | 
7 | NCCCCNC1=C2C(=O)c3c(O)ccc(O)c3C(=O)C2=C(NCCCCN)CC1 [Leuco-1,4-bis(4-aminobutylamino)-5,8-dihydroxyanthraquinone] |  |  |  |  |  |  | 18.5 days | 109% | 14.0 days | 17.0 days | 133% | 162% | 20.0 days | 118% | 16.0 days | 94% | Median Survival Time ([1]; 300 mg./kg. i.p., days 1, 5 and 9): 18.0 days; Median Survival Time ([1]; 400 mg./kg. i.p., days 1, 5 and 9): 20.0 days; response vs control in vivo at 300 mg/kg ([1]; Mus musculus, P388, ip, 300 mg./kg. i.p., days 1, 5 and 9, efficacy ≥125%, read-out: T/C × 100): 171%; response vs control in vivo at 400 mg/kg ([1]; Mus musculus, P388, ip, 400 mg./kg. i.p., days 1, 5 and 9, efficacy ≥125%, read-out: T/C × 100): 190%; Median Survival Time (melanotic melanoma B16; 100 mg./kg. i.p., days 1 through 9): 21.0 days; response vs control in vivo at 100 mg/kg (melanotic melanoma B16; Mus musculus, ip, 100 mg./kg. i.p., days 1 through 9, efficacy ≥125%, read-out: T/C × 100): 124%
8 | NCCCNC1=C2C(=O)c3c(O)ccc(O)c3C(=O)C2=C(NCCCN)CC1 [Leuco-1,4-bis(3-aminopropylamino)-5,8-dihydroxyanthraquinone] | 16.0 days | 18.0 days | 16.0 days | 133% | 150% | 133% | 27.0 days | 169% | 18.0 days | 18.0 days | 150% | 150% | 31.5 days | 197% | 23.5 days | 147% | Median Survival Time (melanotic melanoma B16; [16]): 22.5 days; response vs control in vivo at 6 mg/kg (melanotic melanoma B16; [18]): 141%
